The values that follow come from patent publication US20240366644A1, “ANTI-INFLAMMATORY APPLICATION OF GINSENOSIDE RD” (priority 2022, published 2024).

This assay has as its system COVID-19 Delta virus-infected mice. In words: IL-1β and MCP-1 expression (RT-qPCR) in lung homogenates of COVID-19 Delta virus-infected mice. Type of assay: in vivo, hACE2 transgenic C57BL/6 mice. To be noted: 20 mg/kg administration group.

Turning to `CC(C)=CCC[C@](C)(O[C@@H]1O[C@H](CO)[C@@H](O)[C@H](O)[C@H]1O)[C@H]1CC[C@]2(C)[C@@H]1[C@H](O)C[C@@H]1[C@@]3(C)CC[C@H](O[C@@H]4O[C@H](CO)[C@@H](O)[C@H](O)[C@H]4O[C@@H]4O[C@H](CO)[C@@H](O)[C@H](O)[C@H]4O)C(C)(C)[C@@H]3CC[C@]12C` [Ginsenoside Rd, ginsenoside Rd], the “ability to inhibit the overexpression of inflammatory mediators compared with Dexamethasone” value was “considerable to that of Dexamethasone”.
